Data: patent publication US12030896B2, “PIKfyve inhibitors” (Mayo Foundation for Medical Education and Research, priority 2018, dated 2024)
Values belong to the molecule of their own block, whether it stands above or below them.

What was measured:
[1] = cited from earlier work
468 kinases = assay: Kinase selectivity panel (Treespot dendrogram); assay type: binding
Experimental: In contrast, 50 nM Apilimod inhibited two kinases to 1% or 10%, and 3 kinases to 35% of control. To examine non-specific binding at higher concentrations, Example 1, Example 3, and Apilimod were tested at 5000 nM. […] PIKfyve is represented at the bottom left of each dendrogram.

IL12 and IL23 = conditions: myeloid cells; cited from earlier work
[2] = oral; cited from earlier work
cells in culture = assay: Vacuolization activity in cells in culture; assay type: cell-based
Text: (§1) As used herein the term “EC50 (μM)” refers to the μM concentration of a compound that is required for 50% activity in a vacuolization assay.
Example 2 is a biotinylated derivative of the compound of Example 1.

U251 = U251 Vacuolization Assay (24h); assay type: cell-based; conditions: Homo sapiens, U-251
Experimental: as §1
Example A—U251 Vacuolization Assay Data (24h) for Compounds of Examples 8-56

U251 glioblastoma cell = assay: Cell killing in combination with vemurafenib; assay type: cell-based, human; conditions: 10 μM vemurafenib, 0 μM Example 1, 72 hour
Experimental: A 25 mM stock of vemurafenib (obtained from Selleckchem) in DMSO was diluted to 2× the indicated concentration into the cell suspension immediately prior to plating the cell suspension onto the pre-diluted Example 1 or Example 3, to result in a final 1× concentration of both compounds.
See FIG. 13 for showing of U251 glioblastoma cell killing by Example 1 alone or in the presence of 10 μM vemurafenib over a 72 hour time course.

SMILES: Cc1cccc(/C=N/Nc2cc(N3CCOCC3)nc(OCCc3ccccn3)n2)c1 [Apilimod, 3-Methylbenzaldehyde 2-[6-(4-Morpholinyl)-2-[2-(2-pyridinyl)ethoxy]-4-pyrimidinyl]hydrazine]
dose limiting toxicity ([1]; headache, flushing, hypoesthesia, dizziness, paresthesia): 105 mg bid
mean improvement in PASI score ([1]; oral, 70 mg qd): 46%
patients with histologic improvement ([1]; oral, 70 mg qd): 47%
IL12 and IL23 expression in skin lesions ([1]; oral): significantly reduced
number of kinases blocked to 1% of control (468 kinases; 50 nM, 468 kinases): two
number of kinases blocked to 10% of control (468 kinases; 50 nM, 468 kinases): two
number of kinases blocked to 35% of control (468 kinases; 50 nM, 468 kinases): 3
number of kinases blocked to 1% activity level (468 kinases; 5000 nM): 4
number of kinases blocked to 10% activity level (468 kinases; 5000 nM): 9
number of kinases blocked to 35% activity level (468 kinases; 5000 nM): 15
selectivity for PIKfyve (468 kinases; comparison of Example 1, Example 3 and apilimod): less specific
IL12 and IL23 production (IL12 and IL23): suppresses
IFN-gamma production by ex vivo cells [2]: decreased
TH1 / TH2 responses [2]: suppressed TH1 but not TH2 responses
inflammatory histopathologic skin changes [2]: markedly reduced

SMILES: O=C(CCCC[C@@H]1SC[C@@H]2NC(=O)N[C@@H]21)Nc1ccc(Nc2nc(N/N=C/c3c[nH]c4ccccc34)nc(N3CCOCC3)n2)cc1 [Example 2, (E)-N-(4-((4-(2-((1H-indol-3-yl)methylene)hydrazinyl)-6-morpholino-1,3,5-triazin-2-yl)amino)phenyl)-5-(2-oxohexahydro-1H-thieno[3,4-d]imidazol-4-yl)pentanamide]
EC50 (cells in culture): 8 nM

SMILES: Cc1ccc(Nc2nc(N/N=C/c3c[nH]c4ccccc34)nc(N3CCOCC3)n2)nc1 [Example 45, {4-[N′-(1H-Indol-3-ylmethylene)-hydrazino]-6-morpholin-4-yl-[1,3,5]triazin-2-yl}-(5-methyl-pyridin-2-yl)-amine]
EC50 (U251): ≤ 1 µM

SMILES: COC1CCN(c2nc(N/N=C/c3c[nH]c4ccccc34)nc(Nc3ccc(C)cc3)n2)CC1 [Example 49, (E)-4-(2-((1H-Indol-3-yl)methylene)hydrazinyl)-6-(4-methoxypiperidin-1-yl)-N-(p-tolyl)-1,3,5-triazin-2-amine]
EC50 (U251): > 50 µM

SMILES: Cc1ccc(Nc2nc(N/N=C/c3c[nH]c4ccccc34)nc(N3C4CCC3COC4)n2)cc1 [Example 52, (E)-4-(2-((1H-Indol-3-yl)methylene)hydrazinyl)-6-(3-oxa-8-azabicyclo[3.2.1]octan-8-yl)-N-(p-tolyl)-1,3,5-triazin-2-amine]
EC50 (U251): 1 to 10 µM

SMILES: C(=N\Nc1nc(Nc2cccc3ccccc23)nc(N2CCOCC2)n1)/c1c[nH]c2ccccc12 [Example 55, (E)-4-(2-((1H-indol-3-yl)methylene)hydrazinyl)-6-morpholino-N-(naphthalen-1-yl)-1,3,5-triazin-2-amine]
EC50 (U251): ≤ 1 µM

SMILES: CCCS(=O)(=O)Nc1ccc(F)c(C(=O)c2c[nH]c3ncc(-c4ccc(Cl)cc4)cc23)c1F [vemurafenib, N-(3-(5-(4-chlorophenyl)-1H-pyrrolo[2,3-b]pyridine-3-carbonyl)-2,4-difluorophenyl)propane-1-sulfonamide, reference compound]
effect on cell killing, alone (U251 glioblastoma cell): little effect

Other lines, results leading:

EC50 (U251): ≤ 1 µM
SMILES: CS(=O)(=O)Nc1ccc(Nc2nc(N/N=C/c3c[nH]c4ccccc34)nc(N3CCOCC3)n2)cc1 [Example 46, (E)-N-(4-((4-(2-((1H-indol-3-yl)methylene)hydrazinyl)-6-morpholino-1,3,5-triazin-2-yl)amino)phenyl)methanesulfonamide]

EC50 (U251): ≤ 1 µM
SMILES: Cc1ccc(Nc2nc(N/N=C/c3c[nH]c4ccccc34)nc(N3CCc4ccccc4C3)n2)cc1 [Example 47, (E)-4-(2-((1H-Indol-3-yl)methylene)hydrazinyl)-6-(3,4-dihydroisoquinolin-2(1H)-yl)-N-(p-tolyl)-1,3,5-triazin-2-amine]

EC50 (U251): > 50 µM
SMILES: Cc1ccc(Nc2nc(N/N=C/c3c[nH]c4ccccc34)nc(N3CCOc4ccccc43)n2)cc1 [Example 48, (E)-4-(2-((1H-Indol-3-yl)methylene)hydrazinyl)-6-(2H-benzo[b][1,4]oxazin-4(3H)-yl)-N-(p-tolyl)-1,3,5-triazin-2-amine]

EC50 (U251): ≤ 1 µM
SMILES: Cc1ccc(Nc2nc(N/N=C/c3c[nH]c4ccccc34)nc(N3CCOCC3C)n2)cc1 (centres unmarked) [Example 50, (E)-4-(2-((1H-Indol-3-yl)methylene)hydrazinyl)-6-(3-methylmorpholino)-N-(p-tolyl)-1,3,5-triazin-2-amine]

EC50 (U251): 1 to 10 µM
SMILES: COCCN(c1nc(N/N=C/c2c[nH]c3ccccc23)nc(Nc2ccc(C)cc2)n1)C(C)C [Example 51, (E)-6-(2-((1H-Indol-3-yl)methylene)hydrazinyl)-N2-isopropyl-N2-(2-methoxyethyl)-N4-(p-tolyl)-1,3,5-triazine-2,4-diamine]

EC50 (U251): > 50 µM
SMILES: Cc1ccc(Nc2nc(N/N=C\c3coc4ccccc34)nc(N3CCOCC3)n2)cc1 [Example 53, 4-(2-(benzofuran-3-ylmethylene)hydrazinyl)-6-morpholino-N-(p-tolyl)-1,3,5-triazin-2-amine]

EC50 (U251): > 50 µM
SMILES: Cc1ccc(Nc2nc(NCCc3c[nH]c4ccccc34)nc(N3CCOCC3)n2)cc1 [Example 54, N2-(2-(1H-indol-3-yl)ethyl)-6-morpholino-N4-(p-tolyl)-1,3,5-triazine-2,4-diamine]

EC50 (U251): > 50 µM
SMILES: Cc1[nH]c2ccccc2c1/C=N/Nc1nc(Nc2ccc([N+](=O)[O-])cc2)nc(N2CCCCCC2)n1 [Example 56, (E)-4-(azepan-1-yl)-6-(2-((2-methyl-1H-indol-3-yl)methylene)hydrazinyl)-N-(4-nitrophenyl)-1,3,5-triazin-2-amine]
